Test results from patent US7625411B2, “Insecticidally treated fabric having improved wash durability and insecticidal efficacy and method for its production” (Piedmont Chemical Industries I, LLC, priority 2004, dated 2009).

Assay: Wash durability of permethrin-treated polyester fabric: accelerated laundering (AATCC Test Method 61-1996), solvent extraction, gas chromatography
Format: physicochemical
Details: without the binder system, just after the first wash
Experimental: A polyester warp fleece weighing approximately 7.6 oz. per linear yard was used in this trial. Based on the weight of the fabric, calculating the percent wet pick-up the of fabric using production sqeeze pressures in the pad application, and the amount of permethrin target (1.25 g/m^2), the quantity of permethrin to be added to the pad bath was calculated using the above equation to be 1.68%. […] The fabric was padded and dried at a normal drying temperature for polyester (330 to 350° F.).
After the application of permethrin to the fabric, samples of the treated fabric were extracted with toluene according to the procedure outlined below in order to determine the amount of permethrin loaded onto the fabric. A swatch of fabric measuring approximately two feet by two feet is cut from the treated roll of fabric. From that swatch, 3 smaller pieces measuring 10 cm by 10 cm, were cut and used for extraction of permethrin. Each 10 by 10 swatch was placed in a 250 ml flat-bottomed flask, and from 50-75 ml of an extraction solvent (e.g., 1,1,1-trichloroethane) was added thereto. The flask was then equipped with a reflux condenser and placed on a hot plate and allowed to reflux for 0.5-0.75 hr. Once the samples have finished refluxing and have cooled, 0.05mg/ml of dioctylphthalate (“DOP”) is added to the liquid fraction as an internal standard for gas chromatography (“gc”). […]

CC1(C)C(C=C(Cl)Cl)C1C(=O)OCc1cccc(Oc2ccccc2)c1 (centres unmarked) [permethrin]
permethrin remaining in the fabric: 0.20-0.30 g/m^2 | permethrin washed out of the fabric, of the initial amount loaded: 60-80%
